Experimental data published in patent US12473250B2, “Molecular design of new antibiotics and antibiotic adjuvants against MCR strains” (priority 2019, dated 2025).

Experiments:
[1] = system: PAE strains (CRE strains, colistin sensitive); test: MIC of polymyxin B or colistin alone (Table 4); format: cell-based, P. aeruginosa; set-up: unit: μg/mL
Description: (§1) MIC experiments of the antimicrobial agents were determined by a modified broth microdilution method in accordance with the Clinical and Laboratory Standards Institute (CLSI) guidelines using 96 well culture plates. In brief, serial dilutions of all plates were prepared at different concentrations (μg). The inoculum suspension was prepared by adding isolated colonies from a 18-20 hours on TSA plate into phosphate buffer (0.31 mM, pH 7.2) or in water for injection (BBraun) and adjusting the suspension to a turbidity equivalent to 0.5 McFarland Standard. Each well contained a final bacterial concentration of approximately 5×10^5 colony forming units (CFU)/mL. The plate was covered and incubated at 35° C. for 24 hours. […] For the microdilution plates, turbidity in wells can be measured at OD600 using TECAN infinite M200Pro. MIC was determined as […] concentration that gives a 99 percent inhibition.

[2] = system: colistin resistant MCR (−) E. Cloacae strain 7023456439; test: MIC, broth microdilution, compound alone; format: cell-based; details: strain 7023456439 E. Cloacae
Outline: (§2)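 Wells held ~5×10^5 CFU/mL of bacteria prepared to 0.5 McFarland from overnight TSA colonies and exposed to serially diluted agents, following modified CLSI microdilution. After 24 h at 35 °C, growth judged by turbidity (OD600 possible); 99% inhibition sets the MIC.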

[3] = system: colistin resistant MCR (−) E. Coli strains; test: MIC, broth microdilution, compound alone; format: cell-based
Outline: as §2

[4] = system: EC strains (CRE strains, colistin sensitive); test: MIC of polymyxin B or colistin alone (Table 4); format: cell-based, E. coli; set-up: unit: μg/mL
Description: as §1

Colistin
MIC (antibiotic alone) ([1]; strain PAE 4877): 1.56
MIC (antibiotic alone) ([1]; strain PAE 5790): 1.56
MIC (antibiotic alone) ([1]; strain PAE 14476): 1.56
MIC [2]: 100 µg/mL
MIC ([3]; strain 6083672926, MCR (−)): 12.5 µg/mL
MIC ([3]; strain 7023446108, MCR (−)): 6.25 µg/mL
MIC ([3]; strain 7033607097, MCR (−)): 6.25 µg/mL
MIC (antibiotic alone) ([4]; strain EC 17232): 0.195
MIC (antibiotic alone) ([4]; strain EC 17528): 0.78
MIC (antibiotic alone) ([4]; strain EC 19963): 1.56
